According to US20210115104A1, “AMYLIN ANALOGUES” (Zealand Pharma A/S, priority 2015, published 2021):
*1 amine or outer side, *2 acyl side, *3 side chain or, on linkers, in order; H or OH if unused. Where a SMILES comes first, the peptide text is derived from it. Bridges are numbered along the chain shown (N, C = ends). [ ]: non-standard residue; d: D form. The star is where a group is joined. C20 diacid = O=C(O)CCCCCCCCCCCCCCCCCCC(=O)*; Pro(4R-NH2) = N[C@H]1CN[C@H](C(=O)O)C1; γGlu = O=C(O)[C@H](CCC(=O)[*:2])N[*:1]; NMeI = CC[C@H](C)[C@H](NC)C(=O)O; Sar = CNCC(=O)O

Assays:
[1] = Assessment of chemical stability (RP-HPLC normalized purity); assay type: physicochemical; details: for Normalized purity after 7 days, 40° C., pH 4: pH 4, 0.2 mg/ml; for Normalized purity after 7 days, 40° C., pH 4 / Normalized purity after 7 days, 40° C., pH 7.5 / Normalized purity after 7 days, 40° C., pH 9: Table 1; for Normalized purity after 7 days, 40° C., pH 7.5: pH 7.5, 0.2 mg/ml; for Normalized purity after 7 days, 40° C., pH 9: pH 9, 0.2 mg/ml
Procedure: Samples of each test peptide were dissolved in MilliQ™ water, and the pH of the solution was adjusted to pH 4, pH 6, pH 7.5 or pH 9, respectively, using either HCl or NaOH. The final peptide concentration was 0.2 mg/ml. Samples were placed in glass vials and incubated at 40° C. The samples were analyzed by RP-HPLC on a C8 column with gradient elution using an ammonium formate/water eluent system, or on a C18 column with gradient elution using a trifluoroacetic acid/water eluent system. The area-percentage (area-%) of the main peak after incubation time T=t (relative to time T=0) was determined by UV spectroscopy at 220 nm.
The purity was first determined as follows:
Purity(area-%)=(area of main peak/total area of all peaks)×100.
The purity was then normalized between time points by setting purity at time 0 (T=0) to 100 for each pH value for a given peptide, as follows:
Normalised area-% at time t (T=t)=[area-%(T=t)/area-%(T=0)]×100.
The normalized purity values in Table 1 were determined after 7 days of incubation.
The chemical stability assessment described in Example 6 was repeated for four pairs of compounds, each differing only by the presence or absence of an Asn-Asn (N—N) doublet at positions 21 and 22.

[2] = Assessment of physical stability (Thioflavin T fibrillation); assay type: physicochemical; design: key: FND = fibrillation not detected; FD = fibrillation detected; details: 1 mg/ml, 40° C., ThT; for Fibrillation pH 4.0 (Ac): 50 mM acetate buffer pH 4.0, 96 hours; for Fibrillation pH 7.0 (His): 50 mM histidine buffer pH 7.0, 96 hours; for Fibrillation pH 7.0 (Phos.): 50 mM phosphate buffer pH 7.0, 96 hours
Procedure: Solutions containing (i) 1 mg/ml of test peptide, 40 μM ThT and 50 mM phosphate (Ph) buffer (pH 7.0), (ii) 1 mg/ml of test peptide, 40 μM ThT and 50 mM histidine (His) buffer (pH 7.0), and (iii) 1 mg/ml of test peptide, 40 μM ThT and 50 mM acetate (Ac) buffer (pH 4.0), were loaded in a 96-well black fluorescence plate (clear bottom) in triplicate. Data were collected at fixed intervals of 10 min, each preceded by 300 s of automixing (agitation), over a period of 96 hours at 40° C. Physical stability, expressed as lag-time of fibril formation (in hours), was defined as the intersection between two linear regressions representing the initial stable phase and the growth phase.

Normalized purity after 7 days, 40° C., pH 4 [1]	Normalized purity after 7 days, 40° C., pH 7.5 [1]	Normalized purity after 7 days, 40° C., pH 9 [1]	Fibrillation pH 4.0 (Ac) [2]	Fibrillation pH 7.0 (His) [2]	Fibrillation pH 7.0 (Phos.) [2]	Normalized purity pH 4 (Table 5) ([1]; pH 4, repeat of Example 6 for pairs with/without Asn-Asn at 21-22)	Normalized purity pH 6 (Table 5) ([1]; pH 6, repeat of Example 6 for pairs with/without Asn-Asn at 21-22)	Normalized purity pH 7.5 (Table 5) ([1]; pH 7.5, repeat of Example 6 for pairs with/without Asn-Asn at 21-22)	Normalized purity pH 9 (Table 5) ([1]; pH 9, repeat of Example 6 for pairs with/without Asn-Asn at 21-22)	Compound
A (A = >90%)	A (A = >90%)	B (B = 70-90%)	FND	FD	FND					CC[C@H](C)[C@@H](C(=O)N[C@@H](CC(C)C)C(=O)N[C@@H](CO)C(=O)N[C@@H](CO)C(=O)N[C@H](C(=O)N[C@@H](CCC(=O)O)C(=O)N[C@H](C(=O)NCC(=O)N[C@@H](CO)C(=O)N[C@@H](CCC(=O)O)C(=O)N[C@H](C(=O)N1CCC[C@H]1C(N)=O)[C@@H](C)O)C(C)C)[C@@H](C)O)N(C)C(=O)[C@H](C)NC(=O)CN(C)C(=O)[C@H](Cc1ccccc1)NC(=O)[C@H](CO)NC(=O)[C@H](CO)NC(=O)[C@H](CCCNC(=N)N)NC(=O)[C@H](Cc1c[nH]cn1)NC(=O)[C@H](CC(C)C)NC(=O)[C@H](Cc1ccccc1)NC(=O)[C@H](Cc1c[nH]cn1)NC(=O)[C@H](C)NC(=O)[C@H](CC(C)C)NC(=O)[C@H](CCCNC(=N)N)NC(=O)[C@H](CCC(N)=O)NC(=O)[C@@H](NC(=O)[C@H](C)NC(=O)[C@@H]1CSSC[C@H](NC(=O)[C@H](CCCNC(=N)N)NC(=O)CC[C@H](NC(=O)CCCCCCCCCCCCCCCCCCC(=O)O)C(=O)O)C(=O)N[C@@H](CC(N)=O)C(=O)N[C@@H]([C@@H](C)O)C(=O)N[C@@H](C)C(=O)N[C@@H]([C@@H](C)O)C(=O)N1)[C@@H](C)O [Compound 2, [19CD]-isoGlu-R-C( )-NTAT-C( )-ATQRLAHFLHRSSF-Gly(Me)-A-Ile(Me)-LSSTEVGSETP-NH2] ({C20 diacid-γGlu}-RCNTATCATQRLAHFLHRSSF[Sar]A[NMeI]LSSTEVGSETP-NH2; disulfide 2-7)
A (A = >90%)	B (B = 70-90%)	B (B = 70-90%)	FD	FD	FD					CC[C@H](C)[C@@H](C(=O)N[C@@H](CC(C)C)C(=O)N[C@@H](CO)C(=O)N[C@@H](CO)C(=O)N[C@H](C(=O)N[C@@H](CCC(=O)O)C(=O)N[C@H](C(=O)NCC(=O)N[C@@H](CO)C(=O)N[C@@H](CCC(=O)O)C(=O)N[C@H](C(=O)N1CCC[C@H]1C(N)=O)[C@@H](C)O)C(C)C)[C@@H](C)O)N(C)C(=O)[C@H](C)NC(=O)CN(C)C(=O)[C@H](Cc1ccccc1)NC(=O)[C@H](CO)NC(=O)[C@H](CO)NC(=O)[C@H](CCCNC(=N)N)NC(=O)[C@H](Cc1c[nH]cn1)NC(=O)[C@H](CC(C)C)NC(=O)[C@H](Cc1ccccc1)NC(=O)[C@H](CC(N)=O)NC(=O)[C@H](C)NC(=O)[C@H](CC(C)C)NC(=O)[C@H](CCCNC(=N)N)NC(=O)[C@H](CCC(N)=O)NC(=O)[C@@H](NC(=O)[C@H](C)NC(=O)[C@@H]1CSSC[C@H](NC(=O)[C@H](CCCNC(=N)N)NC(=O)CC[C@H](NC(=O)CCCCCCCCCCCCCCCCCCC(=O)O)C(=O)O)C(=O)N[C@@H](CC(N)=O)C(=O)N[C@@H]([C@@H](C)O)C(=O)N[C@@H](C)C(=O)N[C@@H]([C@@H](C)O)C(=O)N1)[C@@H](C)O [Compound 3, [19CD]-isoGlu-R-C( )-NTAT-C( )-ATQRLANFLHRSSF-Gly(Me)-A-Ile(Me)-LSSTEVGSETP-NH2] ({C20 diacid-γGlu}-RCNTATCATQRLANFLHRSSF[Sar]A[NMeI]LSSTEVGSETP-NH2; disulfide 2-7)
						A (A = >90%)	A (A = >90%)	A (A = >90%)	A (A = >90%)	CC[C@H](C)[C@H](NC(=O)[C@@H]1CCCN1C(=O)CNC(=O)[C@H](Cc1ccccc1)NC(=O)[C@H](CO)NC(=O)[C@H](CO)NC(=O)[C@H](Cc1c[nH]cn1)NC(=O)[C@H](Cc1c[nH]cn1)NC(=O)[C@H](CC(C)C)NC(=O)[C@H](Cc1ccccc1)NC(=O)[C@H](CCC(=O)O)NC(=O)[C@H](C)NC(=O)[C@H](CC(C)C)NC(=O)[C@H](CCCNC(=N)N)NC(=O)[C@H](CCC(N)=O)NC(=O)[C@@H](NC(=O)[C@H](C)NC(=O)[C@@H]1CSSC[C@H](NC(=O)[C@H](CCCNC(=N)N)NC(=O)CC[C@H](NC(=O)CCCCCCCCCCCCCCCCCCC(=O)O)C(=O)O)C(=O)N[C@@H](CC(N)=O)C(=O)N[C@@H]([C@@H](C)O)C(=O)N[C@@H](C)C(=O)N[C@@H]([C@@H](C)O)C(=O)N1)[C@@H](C)O)C(=O)N[C@@H](CC(C)C)C(=O)N1CCC[C@H]1C(=O)N1CCC[C@H]1C(=O)N[C@H](C(=O)N[C@@H](CC(N)=O)C(=O)N[C@H](C(=O)NCC(=O)N[C@@H](CO)C(=O)N[C@@H](CC(N)=O)C(=O)N[C@H](C(=O)N1CCC[C@H]1C(N)=O)[C@@H](C)O)C(C)C)[C@@H](C)O [Compound 97, reference compound] ({C20 diacid-γGlu}-RCNTATCATQRLAEFLHHSSFGPILPPTNVGSNTP-NH2; disulfide 2-7)
			FD		FD					CC[C@H](C)[C@H](NC(=O)[C@@H]1CCCN1C(=O)CNC(=O)[C@H](Cc1ccccc1)NC(=O)[C@H](CC(N)=O)NC(=O)[C@H](CC(N)=O)NC(=O)[C@H](CO)NC(=O)[C@H](CO)NC(=O)[C@H](Cc1c[nH]cn1)NC(=O)[C@@H](NC(=O)[C@H](CC(C)C)NC(=O)[C@H](Cc1ccccc1)NC(=O)[C@H](CC(N)=O)NC(=O)[C@H](C)NC(=O)[C@H](CC(C)C)NC(=O)[C@H](CCCNC(=N)N)NC(=O)[C@H](CCC(N)=O)NC(=O)[C@@H](NC(=O)[C@H](C)NC(=O)[C@@H]1CSSC[C@H](NC(=O)[C@@H](N)CCCCN)C(=O)N[C@@H](CC(N)=O)C(=O)N[C@@H]([C@@H](C)O)C(=O)N[C@@H](C)C(=O)N[C@@H]([C@@H](C)O)C(=O)N1)[C@@H](C)O)C(C)C)C(=O)N[C@@H](CC(C)C)C(=O)N1CCC[C@H]1C(=O)N1CCC[C@H]1C(=O)N[C@H](C(=O)N[C@@H](CC(N)=O)C(=O)N[C@H](C(=O)NCC(=O)N[C@@H](CO)C(=O)N[C@@H](CC(N)=O)C(=O)N[C@H](C(=O)N[C@@H](Cc1ccc(O)cc1)C(N)=O)[C@@H](C)O)C(C)C)[C@@H](C)O [Pramlintide, reference compound]

Compound	Normalized purity after 7 days, 40° C., pH 4 [1]	Normalized purity after 7 days, 40° C., pH 7.5 [1]	Normalized purity after 7 days, 40° C., pH 9 [1]	Fibrillation pH 4.0 (Ac) [2]	Fibrillation pH 7.0 (His) [2]	Fibrillation pH 7.0 (Phos.) [2]	Normalized purity pH 4 (Table 5) ([1]; pH 4, repeat of Example 6 for pairs with/without Asn-Asn at 21-22)	Normalized purity pH 6 (Table 5) ([1]; pH 6, repeat of Example 6 for pairs with/without Asn-Asn at 21-22)	Normalized purity pH 7.5 (Table 5) ([1]; pH 7.5, repeat of Example 6 for pairs with/without Asn-Asn at 21-22)	Normalized purity pH 9 (Table 5) ([1]; pH 9, repeat of Example 6 for pairs with/without Asn-Asn at 21-22)
CC[C@H](C)[C@@H](C(=O)N[C@@H](CC(C)C)C(=O)N[C@@H](CO)C(=O)N[C@@H](CO)C(=O)N[C@H](C(=O)N[C@@H](CC(N)=O)C(=O)N[C@H](C(=O)NCC(=O)N[C@@H](CO)C(=O)N[C@@H](CC(N)=O)C(=O)N[C@H](C(=O)N1C[C@H](N)C[C@H]1C(N)=O)[C@@H](C)O)C(C)C)[C@@H](C)O)N(C)C(=O)[C@H](C)NC(=O)CN(C)C(=O)[C@H](Cc1ccccc1)NC(=O)[C@H](CC(N)=O)NC(=O)[C@H](CC(N)=O)NC(=O)[C@H](CO)NC(=O)[C@H](CO)NC(=O)[C@H](CCCNC(=N)N)NC(=O)[C@H](Cc1c[nH]cn1)NC(=O)[C@H](CC(C)C)NC(=O)[C@H](Cc1ccccc1)NC(=O)[C@H](Cc1c[nH]cn1)NC(=O)[C@H](C)NC(=O)[C@H](CC(C)C)NC(=O)[C@H](CCCNC(=N)N)NC(=O)[C@H](CCC(N)=O)NC(=O)[C@@H](NC(=O)[C@H](C)NC(=O)[C@@H]1CSSC[C@H](NC(=O)[C@H](CCCNC(=N)N)NC(=O)CC[C@H](NC(=O)CCCCCCCCCCCCCCCCCCC(=O)O)C(=O)O)C(=O)N[C@@H](CC(N)=O)C(=O)N[C@@H]([C@@H](C)O)C(=O)N[C@@H](C)C(=O)N[C@@H]([C@@H](C)O)C(=O)N1)[C@@H](C)O [Compound 5, [19CD]-isoGlu-R-C( )-NTAT-C( )-ATQRLAHFLHRSSNNF-Gly(Me)-A-Ile(Me)-LSSINVGSNT-Apr-NH2] ({C20 diacid-γGlu}-RCNTATCATQRLAHFLHRSSNNF[Sar]A[NMeI]LSSTNVGSNT[Pro(4R-NH2)]-NH2; disulfide 2-7)	B (B = 70-90%)	C (C = <70%)	C (C = <70%)	FND	FND	FND				
